Experimental data as given in ChEMBL document CHEMBL4334495, “Design and Biological Evaluation of m-Xylene Thioether-Stapled Short Helical Peptides Targeting the HIV-1 gp41 Hexameric Coiled-Coil Fusion Complex” (J Med Chem, 2019).
Starred links: 1 amine or outer side, 2 acyl side, 3 side chain; linkers in the order of their positions; H or OH if unused. Positions of bridges follow the written chain, without caps; N, C: chain ends. Non-standard residues stand in square brackets, D forms with d. Residues, ends and D or L forms follow the SMILES beside them. ξ: configuration not given here. mXylylene = c1cc(C[*:1])cc(C[*:2])c1; ξhCys = NC(CCS)C(=O)O

How the values were obtained:
[1] = Cytotoxicity against human TZM-bl cells assessed as reduction in viability after 2 days by XTT assay; format: cell-based
[2] = target: Envelope glycoprotein gp160 (Human immunodeficiency virus 1) (UniProt Q6QLK5); assay: Binding affinity to HIV1 GP41 using GP41 NHR derived N36 peptide assessed as molecular weight at 150 uM incubated for 30 mins by sedimentation Velocity analysis
Chain of Envelope glycoprotein gp160 (Human immunodeficiency virus 1) (Q6QLK5 1-814): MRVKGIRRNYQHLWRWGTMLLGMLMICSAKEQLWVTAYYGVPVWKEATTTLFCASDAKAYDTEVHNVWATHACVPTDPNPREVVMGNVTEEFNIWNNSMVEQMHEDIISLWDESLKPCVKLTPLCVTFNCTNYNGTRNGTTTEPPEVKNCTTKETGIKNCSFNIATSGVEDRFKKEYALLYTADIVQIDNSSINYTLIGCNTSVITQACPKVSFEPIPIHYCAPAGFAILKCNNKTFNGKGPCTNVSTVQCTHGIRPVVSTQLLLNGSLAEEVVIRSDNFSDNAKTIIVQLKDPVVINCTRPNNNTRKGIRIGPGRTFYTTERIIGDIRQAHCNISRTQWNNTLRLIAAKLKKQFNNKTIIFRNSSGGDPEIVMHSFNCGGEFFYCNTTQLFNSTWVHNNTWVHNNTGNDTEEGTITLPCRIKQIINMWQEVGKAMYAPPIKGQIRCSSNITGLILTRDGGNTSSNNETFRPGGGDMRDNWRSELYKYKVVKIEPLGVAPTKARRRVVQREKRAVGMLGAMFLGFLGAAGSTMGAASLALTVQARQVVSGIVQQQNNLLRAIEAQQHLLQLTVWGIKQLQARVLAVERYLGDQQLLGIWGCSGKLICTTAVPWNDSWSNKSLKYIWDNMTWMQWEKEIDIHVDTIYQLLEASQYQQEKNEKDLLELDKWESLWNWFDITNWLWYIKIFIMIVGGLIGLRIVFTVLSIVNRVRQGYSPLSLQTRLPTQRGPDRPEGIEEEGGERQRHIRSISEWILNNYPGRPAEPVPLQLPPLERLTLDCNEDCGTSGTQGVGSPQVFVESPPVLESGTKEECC

[3] = tested on: Human immunodeficiency virus 1; assay: (§1) Synergistic antiviral activity against X4 tropic HIV-1 subtype-B 3B infected in human MT2 cells or CEMx174 5.25 M7 cells assessed as reduction in p24 Gag protein production by measuring combination index at 6:1 compound to HP23 ratio measured at 4 days post-infection by ELISA; format: functional, HIV-1 group M
[4] = tested on: Human immunodeficiency virus 1; assay: Antiviral activity against X4 tropic HIV-1 subtype-B 3B infected in human MT2 cells or CEMx174 5.25 M7 cells assessed as reduction in p24 Gag protein production at 12:1 compound to HP23 ratio measured at 4 days post-infection by ELISA; format: functional, cell-based, HIV-1 group M; details: Human immunodeficiency virus 1, 3B, 96 h
[5] = tested on: Human immunodeficiency virus 1; assay: Antiviral activity against X4 tropic HIV-1 subtype-B 3B infected in human MT2 cells or CEMx174 5.25 M7 cells assessed as reduction in p24 Gag protein production at 24:1 compound to HP23 ratio measured at 4 days post-infection by ELISA; format: functional, cell-based, HIV-1 group M; details: Human immunodeficiency virus 1, 3B, 96 h
[6] = tested on: Human immunodeficiency virus 1; assay: Synergistic antiviral activity against R5 tropic HIV-1 subtype-B Bal infected in human MT2 cells or CEMx174 5.25 M7 cells assessed as reduction in p24 Gag protein production by measuring combination index at 3:1 ratio of hCS6ERE to compound measured at 4 days post-infection by ELISA; format: functional, HIV-1 group M
[7] = tested on: Human immunodeficiency virus 1; assay: Synergistic antiviral activity against R5 tropic HIV-1 subtype-B Bal infected in human MT2 cells or CEMx174 5.25 M7 cells assessed as reduction in p24 Gag protein production by measuring combination index at 12:1 ratio of hCS6ERE to compound measured at 4 days post-infection by ELISA; format: functional, HIV-1 group M
[8] = tested on: Human immunodeficiency virus 1; assay: (§2) Ratio of EC50 for antiviral activity against HIV1 NL4-3 infected in human MT2 cells or CEMx174 5.25 M7 cells in absence of HP23 to EC50 for antiviral activity against HIV1 NL4-3 infected in human MT2 cells or CEMx174 5.25 M7 cells at 20:1 compound to HP23 ratio; format: functional
[9] = tested on: Human immunodeficiency virus 1; assay: as §1, with “T20 resistant HIV1 NL4-3 harboring with V38E/N42S mutant” for “X4 tropic HIV-1 subtype-B 3B”, “3500:1” for “6:1”; format: functional
[10] = tested on: Human immunodeficiency virus 1; assay: Antiviral activity against T20 resistant HIV1 NL4-3 harboring with V38E/N42S mutant infected in human MT2 cells or CEMx174 5.25 M7 cells assessed as reduction in p24 Gag protein production at 14000:1 compound to HP23 ratio measured at 4 days post-infection by ELISA; format: functional, organism-based
[11] = tested on: Human immunodeficiency virus 1; assay: as §2, with “against T20 resistant” for “against”, “NL4-3 harboring with V38E/N42S mutant” for “NL4-3”, “7000:1” for “20:1”; format: functional
[12] = tested on: Human immunodeficiency virus 1; assay: Antiviral activity against T20 resistant HIV1 NL4-3 harboring with V38E/N42T mutant infected in human MT2 cells or CEMx174 5.25 M7 cells assessed as reduction in p24 Gag protein production at 150:1 compound to HP23 ratio measured at 4 days post-infection by ELISA; format: functional, organism-based
[13] = tested on: Human immunodeficiency virus 1; assay: (§3) Ratio of EC50 for antiviral activity against T20 resistant HIV1 NL4-3 harboring with V38E/N42T mutant infected in human MT2 cells or CEMx174 5.25 M7 cells in absence of HP23 to EC50 for Antiviral activity against T20 resistant HIV1 NL4-3 harboring with V38E/N42T mutant infected in human MT2 cells or CEMx174 5.25 M7 cells at 300:1 compound to HP23 ratio; format: functional
[14] = tested on: Human immunodeficiency virus 1; assay: as §3, with “600:1” for “300:1”; format: functional
[15] = tested on: Human immunodeficiency virus 1; assay: as §2, with “X4 tropic HIV-1 subtype-B 3B” for “HIV1 NL4-3”, “hCS6ERE” for “HP23”, “24:1 ratio of hCS6ERE to” for “20:1”, “compound” for “compound to HP23 ratio”; format: functional, HIV-1 group M
[16] = tested on: Human immunodeficiency virus 1; assay: Antiviral activity against R5 tropic HIV-1 subtype-B Bal infected in human MT2 cells or CEMx174 5.25 M7 cells assessed as reduction in p24 Gag protein production at 6:1 ratio of hCS6ERE to compound measured at 4 days post-infection by ELISA; format: functional, cell-based, HIV-1 group M; details: Human immunodeficiency virus 1, Bal, 96 h
[17] = tested on: Human immunodeficiency virus 1; assay: as §2, with “R5 tropic HIV-1 subtype-B Bal” for “HIV1 NL4-3”, “hCS6ERE” for “HP23”, “12:1 ratio of hCS6ERE to” for “20:1”, “compound” for “compound to HP23 ratio”; format: functional, HIV-1 group M
[18] = tested on: Human immunodeficiency virus 1; assay: Antiviral activity against HIV1 NL4-3 infected in human MT2 cells or CEMx174 5.25 M7 cells assessed as reduction in p24 Gag protein production at 5:1 hCS6ERE to compound ratio measured at 4 days post-infection by ELISA; format: functional, organism-based; details: Human immunodeficiency virus 1, NL4-3, 96 h
[19] = tested on: Human immunodeficiency virus 1; assay: Ratio of EC50 for antiviral activity against HIV1 NL4-3 infected in human MT2 cells or CEMx174 5.25 M7 cells in absence of hCS6ERE to EC50 for antiviral activity against HIV1 NL4-3 infected in human MT2 cells or CEMx174 5.25 M7 cells at 10:1 hCS6ERE to compound ratio; format: functional
[20] = tested on: Human immunodeficiency virus 1; assay: as §3, with “V38E/N42S” for “V38E/N42T”, “hCS6ERE” for “HP23”, “antiviral” for “Antiviral”, “3500:1 hCS6ERE to” for “300:1”, “compound” for “compound to HP23”; format: functional
[21] = tested on: Human immunodeficiency virus 1; assay: as §3, with “V38E/N42S” for “V38E/N42T”, “hCS6ERE” for “HP23”, “antiviral” for “Antiviral”, “14000:1 hCS6ERE to” for “300:1”, “compound” for “compound to HP23”; format: functional

CC[C@H](C)[C@H](NC(C)=O)C(=O)N[C@@H](CCC(=O)O)C(=O)N[C@@H](CCC(=O)O)C(=O)N[C@@H](CC(C)C)C(=O)N[C@H](C(=O)NC1CCSCc2cccc(c2)CSCCC(C(=O)N[C@@H](CCC(N)=O)C(=O)N[C@@H](CCC(N)=O)C(=O)N[C@@H](CCCNC(=N)N)C(=O)N[C@@H](CCCCN)C(=O)N[C@@H](CC(N)=O)C(=O)N[C@@H](CCC(=O)O)C(=O)N[C@@H](CCC(=O)O)C(=O)N[C@@H](C)C(=O)N[C@@H](CC(C)C)C(=O)N[C@@H](CCCNC(=N)N)C(=O)N[C@@H](CCC(=O)O)C(=O)N[C@@H](CC(C)C)C(N)=O)NC(=O)[C@H](CCC(N)=O)NC(=O)[C@H](C)NC(=O)[C@H](C)NC1=O)[C@@H](C)CC (stereo partly specified) (Ac-IEELI[ξhCys]AAQ[ξhCys]QQRKNEEALREL-NH2; linker 6-10 via mXylylene)
CC50 at 48 h [1]: > 800000 nM | Activity [2]: 19.2 kDa | CI [3]: 0.8 | EC50 [4]: 11.1 nM | EC50 [5]: 17.3 nM | CI [6]: 0.8 | CI [7]: 0.6 | Ratio EC50 [8]: 1.6 | CI [9]: 0.7 | EC50 [10]: 3170 nM | Ratio EC50 [11]: 2.7 | EC50 [12]: 327 nM | Ratio EC50 [13]: 2.3 | Ratio EC50 [14]: 2.2

H-EMTWEEWEKKIEEYTKKIEEILK-OH
Ratio EC50 [15]: 3.6 | EC50 [16]: 1 nM | Ratio EC50 [17]: 2.6 | EC50 [18]: 0.9 nM | Ratio EC50 [19]: 3.8 | Ratio EC50 [20]: 2.3 | Ratio EC50 [21]: 7
